Patent US20220152100A1, “METHODS FOR CONTROLLED ACTIVATION OR ELIMINATION OF THERAPEUTIC CELLS” (Bellicum Pharmaceuticals, Inc., priority 2014, published 2022)
Where two headings read alike, the source gives them in different places.

Experiments:
293T cells = test: SeAP reporter assay: FRBL-Caspase9 plus FKBPv12-Caspase9 heterodimerization; type: cell-based, human
Protocol: HEK 293T cells (5×10^5) were seeded on a 100-mm tissue culture dish in 10 mL DMEM4500, supplemented with glutamine, penicillin/streptomycin and 10% fetal calf serum. After 16-30 hours incubation, cells were transfected using Novagen's GeneJuice® protocol. Briefly, for each transfection, 0.5 mL OptiMEM was pipeted into a 1.5-mL microcentrifuge tube and 15 μL GeneJuice reagent added followed by 5 sec. vortexing. Samples were rested 5 minutes to settle the GeneJuice suspension. DNA (5 μg total) was added to each tube and mixed by pipetting up and down four times. Samples were allowed to rest for 5 minutes for GeneJuice-DNA complex formation and the suspension added dropwise to one dish of 293T cells. A typical transfection contains 1 μg SRα-SEAP (pBP0046) (3), 2 μg FRB-Caspase-9 (pBP0463) and 2 μg FKBPv12-Caspase-9 (pBP0044) (7).
24 hours following transfection (4.1), 293T cells were split to 96-well plates and incubated with dilutions of dimerizing drugs. Briefly, 100 μL media was added to each well of a 96-well flat-bottom plate. Drugs were diluted in tubes to a concentration 4× the top concentration in the gradient to be place on the plate. […] 100 μL from each drug-containing well was then transferred to the adjacent well and the cycle repeated 10 times to produce a serial two-fold step gradient. The last wells were untreated and serve as a control for basal reporter activity. […]
24 hours after drug stimulation, 96-well plates were wrapped to prevent evaporation and incubated at 65®C for 2 hours to inactivate endogenous and serum phosphatases while the heat-stable SeAP reporter remains (1, 4, 12). […] Phosphatase activity was measured by fluorescence with excitation at 355 nm and emission at 460 nm. […]
FIG. 37—Drug induced programmed cell death by homodimerization or heterodimerization of tagged caspase 9. […] Reporter activity is expressed as a percentage of the average of 8 control wells containing no drug. […]
FIG. 38—Rapalog-induced cell death switch. […] Reporter activity is expressed as a percentage of the average of 8 wells containing no drug. […]

293 cells [1] = test: SEAP assay: iMC (tandem FKBP) plus FRBL2-Caspase-9; type: cell-based, human; conditions: tandem FKBPs (iMC) present
Protocol: FIGS. 16A and 16B are line graphs showing that tandem FKBP scaffold mediates FRBL2. Caspase activation in the presence of rapalogs. FIG. 16A. HEK-293 cells were transfected with 1 μg each of SRα-SEAP reporter plasmid, Δmyr.iMC.2A-anti-CD19.CAR.CD3 (pBP0608), and FRBL2. Caspase-9 (pBP0467). […] After ON incubation, cell supernatants were assayed for SEAP activity, as previously described. FIG. 16B. Similar to the experiment described in (FIG. 16A), except that cells were transfected with a membrane-localized (myristoylated) iMC.2A-CD19.CAR.CD3ζ (pBP0609), instead of non-myristoylated Amyr.iMC.2A-CD19.CAR.CD3ζ (pBP0608).
In a second test for rapalog-mediated scaffold-based activation of Caspase-9, 293 cells were transiently transfected with SRα-SEAP reporter plasmid, plus myristoylated or non-myristoylated inducible iMC co-expressed with 1st generation anti-CD19 CAR, plus FRBL2-fused Caspase-9 (plasmid pBP0467) (FIG. 16). […] Thus, rapamcyin and analogs can activate Caspase-9 via a molecular scaffold comprised of FRB or FKBP12 domains.

[2] = target: Her2-CAR-FRBl2 (1st generation Her2-CAR with two tandem FRBl domains at its carboxy terminus); test: cell-based or functional assay
[3] = target: FRBL x4 scaffold, not myristoylated (plasmid pBP0725, pSH1-FRBI.FRBI′.LS.FRBI″.FRBI′′′); test: cell-based or functional assay
[4] = target: CD19-CAR-FRBl2 (1st generation CD19-CAR with two tandem FRBl domains, co-expressed with iCaspase-9 from iC9-CAR(19).FRBl2); test: cell-based or functional assay
CD3+ΔCD19+ cells = test: CASPALLO phase 1 clinical trial: AP1903 in patients with GvHD after iCasp9+ T cells; conditions: within 24 hours
293 cells [5] = test: SEAP assay: iMC.FRBL / iMC.FRBL2 plus Caspase-9; type: cell-based, human; conditions: Caspase-9 with iMC.FRBL or iMC.FRBL2 and anti-HER2 CAR
Protocol: HEK-293 cells were transfected with 1 μg of SRα-SEAP constitutive reporter plasmid along with either negative (Neg) control, eGFP (pBP0047), CaspaCIDe (iC9/pBP0044) alone, or CaspaCIDe along with iMC.FRBL (pBP0655)+anti-HER2.CAR.Fpk2 (pBP0488) or iMC.FRBL2 (pBP0498)+anti-HER2.CAR.Fpk2. Cells were then plated with half-log dilutions of rimiducid or rapamycin and assayed for SEAP as previously described. Diminution of SEAP activity correlates with cell elimination. Schematic represents one possible rapamycin-mediated complex of signaling domains, which lead to Caspase-9 clustering and apoptosis.
To determine if multimers of FRB would still act as a recruitment scaffold to enable rapalog-mediated Caspase-9 dimerization when attached to another signaling domain, 1 or 2 FRBL domains were fused to the potent chimeric stimulatory molecule, MyD88/CD40, to derive iMC.FRBL (pBP0655) and iMC.FRBL2 (pBP0498), respectively (FIG. 9B). As an initial test, 293 cells were transiently transfected with reporter plasmid SRα-SEAP, Caspase-9, a 1st generation anti-HER2 CAR (pBP0488) and (pBP0655 or pBP0498) (FIG. 15). Control transfections contained Caspase-9 (pBP0044) alone or eGFP expression vector (pBP0047). […] Thus, heterodimerizer-mediated activation of Caspase-9 is possible in cells containing multimers of FRBL fused to distinct proteins, such as MyD88/CD40.

293 cells [6] = test: SEAP assay: FRBl2-tagged CAR plus iCaspase-9, two-tiered apoptosis; type: cell-based, human
Description: FIGS. 6A and 6B provide the results of an assay of two-tiered activation of apoptosis.
As a proof of principal, two tandem FRBl domains were fused to either a 1st generation Her2-CAR or to a 1st generation CD19-CAR co-expressing inducible Caspase-9. 293 cells were transiently transfected with a constitutive reporter plasmid, SRα-SEAP, along with normalized levels of expression plasmids encoding Her2-CAR-FRBl2, iCaspase-9, Her2-CAR-FRBl2+iCasp9, iC9-CAR(19).FRBl2 (coexpressing both CD19-CAR-FRBl2 and iCaspase9), or control vector. […] After overnight incubation with drugs, SEAP activity was determined. […] This dose-dependent decrease required the presence of both the FRB-tagged CAR and the FKBP-tagged Caspase-9. […] Moreover, on- or off-target-mediated CAR clustering should increase the sensitivity of killing primarily at the site of scFv engagement.

[7] = target: FKBP12 x4 scaffold (plasmid pBP0722, pSH1-Fpk-Fpk′.LS.Fpk″.Fpk′′′.LS.HA) (Homo sapiens (Human)) (UniProt P62942); test: cell-based or functional assay
[8] = target: wt FRB (K2095 T2098 W2101) (Homo sapiens, UniProt P42345+P62942); conditions: cited from earlier work
293 cells [9] = system: 293 cells
Protocol: FIG. 12B: Cultures of HEK-293 cells were transfected (via Genejuice, Novagen) with the constitutive SRα-SEAP reporter plasmid (pBP0046, 1 μg), a fusion of human FKBP12 with human Caspase-9 (pBP0044, 2 μg) and FRB-encoding expression constructs, containing four copies of FRBL (pBP0725, 2 μg) or control vectors encoding zero or one copy of FRBL. […] FIG. 12C: Reporter assays were performed as in (B), but FRB-scaffolds were expressed from constructs encoding iterated FRBL domains with an amino-terminal myristoylation-targeting sequence and two (pBP0465) or four copies (pBP0721) of the FRBL domain.
A subset of constructs also contained the myristoylation-targeting domain from v-Src for membrane localization of the FRB-scaffold (FIG. 12A). 293 cells were transfected with the SRα-SEAP reporter plasmid along with FKBP12-ΔCaspase-9 (iCaspase-9/CaspaCIDe), plus 1 of several FRB-based, non-myristoylated scaffold proteins containing 0, 1, or 4 tandem copies of FRBL.

293 cells [10] = system: 293 cells; remark: listed apart in the source
Description: To determine if the polarity of heterodimerization and Caspase-9 assembly could be reversed, one to four 1 to 4 tandem copies of FKBP12 were subcloned into expression vector, pSH1, as above. […] As above, 293 cells were transfected with the SRα-SEAP reporter plasmid along with FRBL-ΔCaspase-9, plus a non-myristoylated scaffold protein containing 1 or 4 tandem copies of FKBP12.

[11] = FRBL-Caspase9 plus FKBPv12-Caspase9

Chain of FRBL x4 scaffold, not myristoylated (plasmid pBP0725, pSH1-FRBI.FRBI′.LS.FRBI″.FRBI′′′) (chain, as listed by the source limits assumed): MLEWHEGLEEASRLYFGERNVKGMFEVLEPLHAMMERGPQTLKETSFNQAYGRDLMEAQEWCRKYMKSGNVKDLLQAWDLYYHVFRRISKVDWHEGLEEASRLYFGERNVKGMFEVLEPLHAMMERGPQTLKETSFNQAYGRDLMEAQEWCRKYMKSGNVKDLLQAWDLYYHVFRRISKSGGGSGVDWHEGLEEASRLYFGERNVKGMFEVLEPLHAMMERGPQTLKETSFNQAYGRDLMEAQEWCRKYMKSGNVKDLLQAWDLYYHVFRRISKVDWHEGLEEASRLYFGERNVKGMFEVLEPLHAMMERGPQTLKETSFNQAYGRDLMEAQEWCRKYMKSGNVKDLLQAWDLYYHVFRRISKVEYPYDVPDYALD

For `COC1CC(CC(C)C2CC(=O)C(C)C=C(C)C(O)C(OC)C(=O)C(C)CC(C)C=CC=CC=C(C)C(OC(C)C)CC3CCC(C)C(O)(O3)C(=O)C(=O)N3CCCCC3C(=O)O2)CCC1O` (stereo not shown) [C7-isopropoxy-rapamycin, C7-isopropoxyrapamycin], the “cell death (loss of SeAP reporter)” value (293T cells; [11]) was “dose-dependent high efficacy cell death switch” and the “activation of FRBL2-Caspase-9” value (293 cells [1]) was “activated”.
With “FKBP12v36-ΔCaspase-9 fusion protein (iCaspase-9; plasmid pBP0044, pSH1-iCaspase9wt)” the SRα-SEAP reporter activity after overnight rapamycin in transfected 293 cells [2] was 50 % decrease, the IC50 of rapamycin or C7-isopropoxy-rapamycin for diminution of constitutive SRα-SEAP reporter activity (cell death) in transfected 293 cells [3] was 3 nM and the SRα-SEAP reporter activity after overnight rapamycin in transfected 293 cells [4] was 50 % decrease.
With `CC[C@H](C(=O)N1CCCC[C@H]1C(=O)O[C@H](CCc1ccc(OC)c(OC)c1)c1cccc(OCC(=O)NCCNC(=O)COc2cccc([C@@H](CCc3ccc(OC)c(OC)c3)OC(=O)[C@@H]3CCCCN3C(=O)[C@@H](CC)c3cc(OC)c(OC)c(OC)c3)c2)c1)c1cc(OC)c(OC)c(OC)c1` (relative stereo) [AP1903, 2-Piperidinecarboxylic acid, 1-[(2S)-1-oxo-2-(3,4,5-trimethoxyphenyl)butyl]-, 1,2-ethanedilbis[imino(2-oxo-2,1-ethanediyl)oxy-3,1-phenyleneR1R)-3-(3,4-dimethoxyphenyl)propylidene]] ester, [2S-[1(R*),2R*[S*[S*[1(R*),2R*]]]]]-(9CI)] the “further reduction of CD3+ΔCD19+ cells” value (CD3+ΔCD19+ cells) was “further log reduction”, the “SEAP reduction / cell killing” value (293 cells [5]) was “killed by Caspase-9 homodimerization” and the “cell death (loss of SeAP reporter)” value (293T cells; FKBPv12-Caspase-9 with control vector or FRB without caspase fusion) was “effectively permitted homodimerization and induction of Caspase-9”. The “cell death (loss of SeAP reporter)” value (293T cells; [11]) was “dose-dependent homodimerization of only FKBP12-Caspase9, leading to dimerization and activation of apoptosis”, the “activation of FRBL2-Caspase-9” value (293 cells [1]) was “not activated” and the “SEAP activity, of normal levels” value (293 cells [6]; iCaspase-9, overnight) was “about 20%”.
With “FRBL-ΔCaspase-9 fusion protein (plasmid pBP0463, pSH1-FRBL.dCaspase9.T2A)” the IC50 of rapamycin or C7-isopropoxy-rapamycin for diminution of constitutive SRα-SEAP reporter activity (cell death) in transfected 293 cells [7] was 3 nM.
For “S-Butanesulfonamidorap [S-Butanesulfonamidorap (AP23050)]”, the EC50 [8] is listed as roughly 2.7 nM.
For `CO[C@H]1C[C@@H]2CC[C@@H](C)[C@@](O)(O2)C(=O)C(=O)N2CCCC[C@H]2C(=O)O[C@H]([C@H](C)C[C@@H]2CC[C@@H](O)[C@H](OC)C2)CC(=O)[C@H](C)/C=C(\C)[C@@H](O)[C@@H](OC)C(=O)[C@H](C)C[C@H](C)/C=C/C=C/C=C/1C` [rapamycin], the IC50 (293 cells [9]) was roughly 3 nM, the “decrease of SEAP activity” value (293 cells [6]; FRB-tagged CAR and FKBP-tagged Caspase-9, overnight) was roughly 50% and the IC50 (293 cells [10]) was roughly 3 nM.
